Data reported in patent publication US20120046186A1, “Gene Expression Markers for Prediction of Response to Platinum-Based Chemotherapy Drugs” (priority 2010, published 2012).

Tested on: HCT 116 cell line
Assay: cDNA overexpression of LTBR and TMEM30A: oxaliplatin IC50, cell viability
Assay type: cell-based, human
Details: 72 h
From the text: FIGS. 5A-5C show the validation of genes identified in the siRNA screen for genes regulating sensitivity or resistance to oxaliplatin. The effect of siRNA-silencing or cDNA overexpression on the IC50 of oxaliplatin was expressed as the log2 fold-shift of the mean IC50 of siRNA-treated (or cDNA-overexpressing) cells relative to the mean IC50 of non-silencing siRNA control-treated (or vector-alone) cells. […] Data represent mean±SEM (n=3).
Full-length LTBR and TMEM30A open reading frames were cloned into pCMV-XL4 (Origene, Rockville, Md.) and validated by sequencing. Transfection was performed using Turbofectin 8.0® (Origene, Rockville, Md.) in a 96-well format as per manufacturer's instructions using 100 ng cDNA per well. Following a 4 hr incubation, 10 μl per well of an 11-point, 2-fold serial dilution of oxaliplatin (50 μM maximum) was then added. Assays were performed in triplicate, using the empty pCMV-XL4 vector as negative control, with biological replicates. […] Overexpression of cDNA was validated by qRT-PCR using the High-Capacity cDNA Reverse Transcription Kit® (Life Technologies, Carlsbad, Calif.) and qPCR using the 7900 HT Fast Real-Time PCR System® (Life Technologies, Carlsbad, Calif.) with gene-specific primers (ABI, Carlsbad, Calif.).

SMILES: O=C1[O][Pt]2([NH][C@@H]3CCCC[C@H]3[NH]2)[O]C1=O [oxaliplatin]
- increase of IC50 of oxaliplatin (transient overexpression of full-length LTBR vs empty pCMV-XL4 vector): > 2 fold
- increase of IC50 of oxaliplatin (transient overexpression of full-length TMEM30A vs empty pCMV-XL4 vector): > 2 fold
